From article PMC8533089, “Characteristics of Neurokinin-3 Receptor and Its Binding Sites by Mutational Analysis” (Biology, 2021)
Like-named read-outs stand apart in the source and are kept apart here. Where no end group is shown, it is not given here.

Assays:
FSH levels = conditions: daily oral dosing throughout the menstrual cycle; cited from earlier work
Source text: (§1) The effect of NKB/NKF peptides on gonadotropin secretion in fish is already well established. The first indication that NKB is widely expressed in fish species and has a stimulatory reproductive effect was shown in zebrafish, goldfish, and tilapia. […] Osetanant re ...

FSH plasma levels = assay: In vivo effect of NKB antagonists on FSH plasma levels (ELISA); parameters: species or system adult male tilapia (Oreochromis niloticus); conditions: antagonist 100 µg/kg BW IP, sGnRHa 10 µg/kg BW after 0.5 h; n = 10
Experimental: (§2) The levels of FSH, LH and GH in the plasma were measured by specific competitive enzyme-linked immunosorbent assay (ELISA), developed for tilapia, based on recombinant gonadotropins or GH that were created by using the yeast Pichia pastoris. For the ELISAs, we used primary antibody antisera against GH [51], FSHβ [52], or against rtLHβ [53], and rtFSHβα [52], rtLHβ [53] or tiGH for the standard curves. Sensitivity for the plasma measurements were 15.84 pg/mL for LH, 0.24 pg/mL for FSH and 30.0 pg/mL for GH. The inter-assay coefficient of variation (CV) was 14.8, 12.5, and 13.0%, while intra-assay CV was 7.2, 8.0, and 8.0% for LH, FSH and GH, respectively.
Adult male tilapia (BW 89.29 ± 32.93 g; gonado-somatic index (GSI) 0.24% ± 0.40%) were injected IP (intraperitoneal) with NKB antagonists, SB-222200 or Osanetant (100 µg/kg BW), and after 0.5 h, a second injection of sGnRHa (10 µg/kg BW) was added. Control groups were injected with sGnRHa ([DAla^6, Pro^9-Net]-mammalian GnRH; Bachem, Budendorf, Switzerland) 10 µg/kg BW) as a positive control. The fish were bled from the caudal blood vessels into heparinized syringes 0, 0.5, 2, 6 and 24 h after injection. This time course is according to standard protocols used previously to test the effect of GnRH on circulating levels of LH, FSH, and GH in tilapia. […]

LH plasma levels = assay: In vivo effect of NKB antagonists on LH plasma levels (ELISA); parameters: species or system adult male tilapia (Oreochromis niloticus); conditions: antagonist 100 µg/kg BW IP, then sGnRHa 10 µg/kg BW after 0.5 h; n = 10
Experimental: as §2
Adult male tilapia (BW 89.29 ± 32.93 g; gonado-somatic index (GSI) 0.24% ± 0.40%) were injected IP (intraperitoneal) with NKB antagonists, SB-222200 or Osanetant (100 µg/kg BW), and after 0.5 h, a second injection of sGnRHa (10 µg/kg BW) was added. Control groups were injected with sGnRHa ([DAla^6, Pro^9-Net]-mammalian GnRH; Bachem, Budendorf, Switzerland) 10 µg/kg BW) as a positive control. The fish were bled from the caudal blood vessels into heparinized syringes 0, 0.5, 2, 6 and 24 h after injection. This time course is according to standard protocols used previously to test the effect of GnRH on circulating levels of LH, FSH, and GH in tilapia. Blood samples were collected from the caudal vasculature and centrifuged (3200 rpm for 30 min at 4 °C) (Centrifuge: Fresco 17, Rotor: 75003424, Thermo Scientific™, Langenselbold Germany) to obtain plasma samples, which were stored at −20 °C until assayed. Three independent experiments were carried out for the in-vivo studies.

tiTac3Ra = tiTac3Ra (Oreochromis niloticus, UniProt A0A075QPN8); assay: CRE-Luc antagonist assay, wild-type receptor, COS-7; assay type: cell-based, tilapia (Oreochromis niloticus); conditions: for IC50: antagonist 0.001–1000 μM added 10 min before peptide, COS-7, CRE-Luc
Experimental: (§3) In order to study the signaling pathways of the mutant tiTac3Ra, the entire coding regions of tiTac3Ra (GenBank accession no. KF471674), and both of the mutant receptors were inserted into pcDNA3.1 (Invitrogen, Massachusetts, United States). We used a sensitive luciferase (LUC) reporter gene assay. […] Transient transfection, cell procedures and stimulation protocols followed the procedures previously described. Briefly, 3 μg of each construct, together with 3 μg of a luciferase reporter plasmid were transiently transfected into COS-7 cells (American Type Culture Collection, Manassas, VA, USA). Forty-eight hours after transfection, cells transfected with Tac3Ra plasmid fused with GFP were applied with an Hoechst dye (Invitrogen, Massachusetts, United States; diluted 1:1000) in order to mark nuclei in the culture for transfection analysis.
Non-peptide molecules, SB-222200 (Sigma, Merck, Darmstadt, Germany) and Osanetant (Axon Medchem, Reston, VA, USA), known to antagonize mammalian NK3R [49] were studied for their ability to antagonize tiTac3Ra, which was activated with a fixed dose of the native ligands (10 nM tiNKB or tiNKF), combined with increasing doses of the antagonists (0.001–1000 μM). The antagonists were added 10 min prior to the addition of the peptides. IC50 values were calculated from concentration response curves by means of computerized nonlinear curve-fitting with Prism version 9 software (GraphPad, San Diego, CA, USA). All experiments were repeated at least 3 times using cells from independent transfections, each performed in triplicate.
NKB antagonists, SB-222200 (Figure 7A) and Osanetant (Figure 7B) were added in increasing concentrations (0.001–1000 μM) to transfected COS-7 that expressed tiTac3Ra. Ten minutes after the induction of the antagonists, the ligand, tiNKB or tiNKF (10 nM) was added to the media.

FSH and LH release = conditions: in vivo and in vitro; cited from earlier work
Source text: as §1

tiTac3Ra mutant F251A = assay: CRE-Luc receptor transactivation assay, F251A mutant, COS-7; assay type: cell-based, tilapia (Oreochromis niloticus)
Source text: (§4) The expression vector for tilapia tiTac3Ra (GenBank accession no. KF471674) was modified with the Stratagene QuikChange mutagenesis kit (Stratagene, La Jolla, CA, USA), according to the manufacturer’s instructions using two complementary primers (Table 1). The procedure included 18 PCR cycles as specified by the manufacturer’s manual, and the use of Pfu polymerase for the reaction. The mutated construct was then digested with the restriction enzyme DpnI, which is specific to methylated and hemi-methylated DNA, to digest the template and to select the mutation-containing synthesized DNA. The vector was then transfected into XL1 competent cells (E.coli). Two colonies were sequenced and confirmed to contain the mutation without any undesired misincorporation of nucleotides.
(§5) In order to study the signaling pathways of the mutant tiTac3Ra, the entire coding regions of tiTac3Ra (GenBank accession no. KF471674), and both of the mutant receptors were inserted into pcDNA3.1 (Invitrogen, Massachusetts, United States). We used a sensitive luciferase (LUC) reporter gene assay. […]
(§6) Cells transfected with the tiTac3Ra construct and luciferase reporter plasmid were treated with tilapia NKB (tiNKB) and tiNKF at increasing doses (0.2–1000 nM). Luciferase activity (Luc) was measured, and compared to basal treatment, and the maximal effect (Luc fold activation) was calculated for each treatment.

[1] = molecular target: native tilapia Tac3Ra (WT); assay: CRE-Luc receptor transactivation assay, wild-type receptor, COS-7; assay type: cell-based, tilapia (Oreochromis niloticus)
Experimental: as §3, §6

tiTac3Ra mutant M289A = assay: CRE-Luc receptor transactivation assay, M289A mutant, COS-7; assay type: cell-based, tilapia (Oreochromis niloticus)
Source text: as §4, §5, §6

[2] = molecular target: tiTac3Ra M289A mutant (Nile tilapia (Oreochromis niloticus))
[3] = molecular target: tiTac3Ra F251A mutant (Nile tilapia (Oreochromis niloticus))
[4] = molecular target: tilapia Tachykinin 3 receptor a (tiTac3Ra), wild type (Nile tilapia (Oreochromis niloticus))

Chain of tiTac3Ra (A0A075QPN8 entry or part of it): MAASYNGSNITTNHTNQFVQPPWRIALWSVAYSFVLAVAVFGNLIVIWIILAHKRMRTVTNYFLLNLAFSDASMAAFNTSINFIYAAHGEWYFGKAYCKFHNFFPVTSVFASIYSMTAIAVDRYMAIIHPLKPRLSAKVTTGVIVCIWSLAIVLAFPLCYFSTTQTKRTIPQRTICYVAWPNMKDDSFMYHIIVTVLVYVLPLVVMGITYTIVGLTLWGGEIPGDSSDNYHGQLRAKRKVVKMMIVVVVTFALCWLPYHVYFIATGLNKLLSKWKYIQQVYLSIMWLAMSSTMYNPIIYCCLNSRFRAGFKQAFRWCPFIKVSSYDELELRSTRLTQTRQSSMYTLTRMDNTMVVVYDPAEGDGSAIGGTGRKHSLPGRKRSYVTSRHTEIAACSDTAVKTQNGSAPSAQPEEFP

For `Cc1nsc(-c2nnc3n2CCN(C(=O)c2ccc(F)cc2)[C@@H]3C)n1` [ESN364], the FSH levels (FSH levels) is given as “did not alter FSH levels”.

For `CC(=O)N(C)C1(c2ccccc2)CCN(CCC[C@]2(c3ccc(Cl)c(Cl)c3)CCCN(C(=O)c3ccccc3)C2)CC1` [Osanetant], the “FSH levels, 2 h post injection, combination with sGnRHa” value (FSH plasma levels) was “increased FSH levels”, the “LH release, combination with sGnRHa” value (LH plasma levels) was “no inhibitory effects on LH plasma levels” and the IC50 (tiTac3Ra; 10 nM tiNKB, read-out: IC50 versus tiNKB) was 212000 nM. The IC50 (tiTac3Ra; 10 nM tiNKF, read-out: IC50 versus tiNKF) was 122000 nM and the “inhibitory effect on Tac3Ra activation” value (tiTac3Ra; in words) was “strong inhibitory effect”.

In the case of “Succ-Asp-Ile-Phe-N(Me)Ile-Gly-Leu-Met-NH2 [tiNKB analog, tiNKB analog (Succ-Asp-Ile-Phe-N(Me)Ile-Gly-Leu-Met-NH2)]”, the “FSH and LH release” value (FSH and LH release) is listed as “significantly increased FSH and LH release both in-vivo and in-vitro”.

For “Succ-Asp-Ile-Phe-N(Me)Val-Gly-Leu-Met-NH2 [zfNKBa analog, zfNKBa analog (Succ-Asp-Ile-Phe-N(Me)Val-Gly-Leu-Met-NH2)]”, the “FSH and LH release” value (FSH and LH release) is given as “significantly increased FSH and LH release both in-vivo and in-vitro”.

For “Succ-Asp-Phe-N(Me)Val-Gly-Leu-Met-NH2 [zfNKBb analog, zfNKBb analog (Succ-Asp-Phe-N(Me)Val-Gly-Leu-Met-NH2)]”, the “FSH and LH release” value (FSH and LH release) is given as “significantly increased FSH and LH release both in-vivo and in-vitro”.

For “Succ-Asp-Ser-Phe-N(Me)Val-Gly-Leu-Met-NH2 [NKF analog, NKF analog (Succ-Asp-Ser-Phe-N(Me)Val-Gly-Leu-Met-NH2)]”, the “FSH and LH release” value (FSH and LH release) is given as “significantly increased FSH and LH release both in-vivo and in-vitro”.

For “pyroglutaminated [p]-EMDDIFIGLM-NH2 [tiNKB, native tilapia Neurokinin B peptide, synthesized by GL Biochem]”, the “Max effect (Luc fold activation)” value (tiTac3Ra mutant F251A; F251A, COS-7, CRE-Luc, vs basal, 0.2–1000 nM) was 2.0 ± 0.32 Luc fold activation, the “receptor activity of mutant versus WT (CRE-luciferase)” value (tiTac3Ra mutant F251A; Phe251^6.44Ala, 0.2–1000 nM peptide) was “substantial decrease in receptor activity” and the EC50 ([1]; CRE-Luc, COS-7, 0.2–1000 nM, calculated when max effect >2.0) was 2.48 ± 0.05 nM. For the same molecule, the Min effective dose ([1]; CRE-Luc, COS-7, WT) was 0.316 nM, the “Max effect (Luc fold activation)” value ([1]; WT, COS-7, CRE-Luc, vs basal, 0.2–1000 nM) was 3.36 ± 0.46 Luc fold activation and the “Max effect (Luc fold activation)” value (tiTac3Ra mutant M289A; M289A, COS-7, CRE-Luc, vs basal, 0.2–1000 nM) was 1.71 ± 0.46 Luc fold activation. For the same molecule, the “receptor activity of mutant versus WT (CRE-luciferase)” value (tiTac3Ra mutant M289A; Met289^7.43Ala, 0.2–1000 nM peptide) was “substantial decrease in receptor activity”.

B1: Tilapia NKB (neurokinin B) (peptide)
peptide: EMDDIFIGLM
HELM: PEPTIDE1{[Glp].M.D.D.I.F.I.G.L.M.[am]}$$$$V2.0
SMILES: CC[C@H](C)[C@H](NC(=O)[C@H](Cc1ccccc1)NC(=O)[C@@H](NC(=O)[C@H](CC(=O)O)NC(=O)[C@H](CC(=O)O)NC(=O)[C@H](CCSC)NC(=O)[C@@H]1CCC(=O)N1)[C@@H](C)CC)C(=O)NCC(=O)N[C@@H](CC(C)C)C(=O)N[C@@H](CCSC)C(N)=O
B1 gave a Max effect (Luc fold activation), CRE-luciferase receptor transactivation in transfected COS-7 cells, peptide 0.2-1000 nM (Luc fold activation) [2] of 1.71, a Max effect (Luc fold activation), CRE-luciferase receptor transactivation in transfected COS-7 cells, peptide 0.2-1000 nM (Luc fold activation) [3] of 2 and an EC50 (nM) of CRE-luciferase receptor transactivation in transfected COS-7 cells, peptide 0.2-1000 nM [4] of 2.48 nM. For the same molecule, the Max effect (Luc fold activation), CRE-luciferase receptor transactivation in transfected COS-7 cells, peptide 0.2-1000 nM (Luc fold activation) [4] was 3.36 and the Min effective dose (nM), CRE-luciferase receptor transactivation in transfected COS-7 cells [4] was 0.316 nM.

With YNDLDYDSFVGLM-NH2 [Tilapia NKF (neurokinin F)] the Max effect (Luc fold activation), CRE-luciferase receptor transactivation in transfected COS-7 cells, peptide 0.2-1000 nM (Luc fold activation) [2] was 1.84, the Max effect (Luc fold activation), CRE-luciferase receptor transactivation in transfected COS-7 cells, peptide 0.2-1000 nM (Luc fold activation) [3] was 1.99 and the EC50 (nM) of CRE-luciferase receptor transactivation in transfected COS-7 cells, peptide 0.2-1000 nM [4] was 65.2 nM. It also gave a Max effect (Luc fold activation), CRE-luciferase receptor transactivation in transfected COS-7 cells, peptide 0.2-1000 nM (Luc fold activation) [4] of 3.87 and a Min effective dose (nM), CRE-luciferase receptor transactivation in transfected COS-7 cells [4] of 0.316 nM.
